Assay results from patent US9636418B2 (priority 2013, dated 2017).
Where two headings read alike, the source gives them in different places.

How the values were obtained:
Experiment in all cases: cell-based
hNav1.7 = hNav1.7 (Homo sapiens, UniProt Q15858); type: cell-based; details: PatchXpress, read-out: PX hNav1.7 Tonic IC50
hNav1.4 = hNav1.4 (Homo sapiens, UniProt P35499); details: for IC50: PatchXpress, read-out: PX hNav1.4 Tonic IC50
hNav1.5 = hNav1.5 (Homo sapiens, UniProt Q14524); details: PatchXpress, read-out: PX hNav1.5 Tonic IC50
[1] = * = at high concentrations compound would wash off slowly or not at all

Chain of hNav1.7 (Q15858 whole entry): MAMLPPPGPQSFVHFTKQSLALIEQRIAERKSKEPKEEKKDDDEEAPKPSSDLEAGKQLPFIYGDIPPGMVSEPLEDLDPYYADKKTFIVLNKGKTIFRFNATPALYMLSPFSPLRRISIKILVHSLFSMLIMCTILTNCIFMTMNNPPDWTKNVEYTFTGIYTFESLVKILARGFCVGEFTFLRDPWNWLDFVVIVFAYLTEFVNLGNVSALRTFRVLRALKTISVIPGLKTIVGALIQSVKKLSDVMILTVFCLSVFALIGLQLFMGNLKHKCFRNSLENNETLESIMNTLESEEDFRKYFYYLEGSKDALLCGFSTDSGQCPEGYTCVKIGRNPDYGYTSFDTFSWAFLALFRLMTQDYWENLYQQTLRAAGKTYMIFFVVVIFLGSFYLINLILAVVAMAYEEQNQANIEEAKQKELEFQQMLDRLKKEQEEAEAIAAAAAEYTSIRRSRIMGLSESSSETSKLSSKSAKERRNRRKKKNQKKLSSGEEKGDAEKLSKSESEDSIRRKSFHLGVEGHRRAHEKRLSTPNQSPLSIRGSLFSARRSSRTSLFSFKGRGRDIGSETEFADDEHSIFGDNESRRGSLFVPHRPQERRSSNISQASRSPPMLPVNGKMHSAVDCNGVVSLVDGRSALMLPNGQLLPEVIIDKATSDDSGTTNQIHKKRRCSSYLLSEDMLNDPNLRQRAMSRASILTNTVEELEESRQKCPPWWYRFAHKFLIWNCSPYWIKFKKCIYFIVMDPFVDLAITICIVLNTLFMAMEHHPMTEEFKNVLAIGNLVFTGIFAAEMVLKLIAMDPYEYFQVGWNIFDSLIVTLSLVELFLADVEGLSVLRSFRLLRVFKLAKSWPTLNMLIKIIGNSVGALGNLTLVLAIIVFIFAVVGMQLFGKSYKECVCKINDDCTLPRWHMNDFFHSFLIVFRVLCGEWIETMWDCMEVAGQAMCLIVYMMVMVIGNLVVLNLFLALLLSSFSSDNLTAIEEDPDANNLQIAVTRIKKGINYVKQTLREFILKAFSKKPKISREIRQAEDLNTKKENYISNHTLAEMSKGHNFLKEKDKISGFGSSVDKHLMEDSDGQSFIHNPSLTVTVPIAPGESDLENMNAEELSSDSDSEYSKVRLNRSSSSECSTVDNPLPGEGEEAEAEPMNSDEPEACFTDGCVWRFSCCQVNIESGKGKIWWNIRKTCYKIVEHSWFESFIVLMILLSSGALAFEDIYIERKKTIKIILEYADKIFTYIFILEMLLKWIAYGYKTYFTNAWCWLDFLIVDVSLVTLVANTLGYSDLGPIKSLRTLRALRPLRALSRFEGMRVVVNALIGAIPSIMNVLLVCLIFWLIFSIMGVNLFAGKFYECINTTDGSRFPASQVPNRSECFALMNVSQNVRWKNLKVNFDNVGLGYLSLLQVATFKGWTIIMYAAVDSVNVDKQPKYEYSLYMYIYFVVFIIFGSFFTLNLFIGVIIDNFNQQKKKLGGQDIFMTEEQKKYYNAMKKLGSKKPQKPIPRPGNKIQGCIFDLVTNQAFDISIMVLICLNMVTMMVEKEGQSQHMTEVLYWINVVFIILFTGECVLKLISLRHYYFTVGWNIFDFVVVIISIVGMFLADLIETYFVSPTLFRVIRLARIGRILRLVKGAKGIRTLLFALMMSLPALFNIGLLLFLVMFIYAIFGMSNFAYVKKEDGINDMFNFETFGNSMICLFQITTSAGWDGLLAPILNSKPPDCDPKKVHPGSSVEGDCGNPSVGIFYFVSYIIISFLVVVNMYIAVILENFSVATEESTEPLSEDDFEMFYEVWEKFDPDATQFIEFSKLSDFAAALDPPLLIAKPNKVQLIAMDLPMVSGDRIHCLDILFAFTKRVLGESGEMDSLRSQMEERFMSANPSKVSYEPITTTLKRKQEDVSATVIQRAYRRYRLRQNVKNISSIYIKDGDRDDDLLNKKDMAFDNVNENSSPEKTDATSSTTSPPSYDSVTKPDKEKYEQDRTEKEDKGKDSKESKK
Chain of hNav1.4 (P35499 whole entry): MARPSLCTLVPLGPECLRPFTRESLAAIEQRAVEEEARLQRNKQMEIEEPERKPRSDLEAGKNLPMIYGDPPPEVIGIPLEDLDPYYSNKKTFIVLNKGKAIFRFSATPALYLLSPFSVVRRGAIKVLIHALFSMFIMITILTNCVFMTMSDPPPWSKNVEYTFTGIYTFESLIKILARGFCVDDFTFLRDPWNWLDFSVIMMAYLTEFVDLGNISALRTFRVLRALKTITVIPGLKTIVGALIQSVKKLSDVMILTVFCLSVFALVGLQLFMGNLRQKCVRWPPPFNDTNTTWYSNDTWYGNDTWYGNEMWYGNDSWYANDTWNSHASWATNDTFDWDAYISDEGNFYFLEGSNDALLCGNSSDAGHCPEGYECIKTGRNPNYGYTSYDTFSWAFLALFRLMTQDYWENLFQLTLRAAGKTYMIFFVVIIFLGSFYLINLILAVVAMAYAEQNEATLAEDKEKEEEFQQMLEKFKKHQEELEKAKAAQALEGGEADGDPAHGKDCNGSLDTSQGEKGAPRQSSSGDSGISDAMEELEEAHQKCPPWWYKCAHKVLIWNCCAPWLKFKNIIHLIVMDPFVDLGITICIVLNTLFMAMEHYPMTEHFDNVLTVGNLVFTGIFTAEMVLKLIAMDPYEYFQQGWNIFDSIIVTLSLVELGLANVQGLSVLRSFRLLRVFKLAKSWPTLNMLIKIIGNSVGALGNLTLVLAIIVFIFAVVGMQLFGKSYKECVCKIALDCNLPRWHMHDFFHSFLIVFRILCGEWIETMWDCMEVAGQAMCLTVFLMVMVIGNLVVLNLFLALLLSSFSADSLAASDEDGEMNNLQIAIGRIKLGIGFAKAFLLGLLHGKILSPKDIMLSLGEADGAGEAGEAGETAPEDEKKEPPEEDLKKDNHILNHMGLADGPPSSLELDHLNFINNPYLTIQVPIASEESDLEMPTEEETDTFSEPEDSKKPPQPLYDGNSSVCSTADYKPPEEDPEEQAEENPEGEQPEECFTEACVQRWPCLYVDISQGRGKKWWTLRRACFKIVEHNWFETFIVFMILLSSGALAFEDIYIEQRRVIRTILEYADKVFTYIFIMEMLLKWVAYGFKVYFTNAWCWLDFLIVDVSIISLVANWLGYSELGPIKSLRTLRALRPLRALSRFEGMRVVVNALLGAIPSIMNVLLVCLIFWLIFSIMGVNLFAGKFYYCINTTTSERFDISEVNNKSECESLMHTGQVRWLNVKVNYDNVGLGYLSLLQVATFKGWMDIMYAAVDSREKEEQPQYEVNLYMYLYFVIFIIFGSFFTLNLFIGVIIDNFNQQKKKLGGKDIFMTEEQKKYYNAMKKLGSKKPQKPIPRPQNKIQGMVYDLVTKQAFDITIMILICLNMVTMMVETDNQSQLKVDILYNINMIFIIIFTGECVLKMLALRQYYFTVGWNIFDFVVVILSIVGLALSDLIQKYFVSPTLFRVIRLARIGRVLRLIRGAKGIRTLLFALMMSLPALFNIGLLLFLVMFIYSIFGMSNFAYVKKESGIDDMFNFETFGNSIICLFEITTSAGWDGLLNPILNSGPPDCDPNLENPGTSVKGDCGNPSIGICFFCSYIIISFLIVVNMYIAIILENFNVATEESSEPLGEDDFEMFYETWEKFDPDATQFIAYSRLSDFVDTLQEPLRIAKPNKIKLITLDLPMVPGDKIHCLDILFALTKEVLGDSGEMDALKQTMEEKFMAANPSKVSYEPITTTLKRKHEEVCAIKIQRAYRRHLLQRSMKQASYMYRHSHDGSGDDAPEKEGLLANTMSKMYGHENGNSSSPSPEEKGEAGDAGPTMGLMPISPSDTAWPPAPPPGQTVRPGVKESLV

Structure (SMILES)	IC50 (hNav1.7; tonic block) [nM]	IC50 (hNav1.4; tonic block) [nM]	IC50 (hNav1.5; tonic block) [nM]	Nav1.4/Nav1.7 (hNav1.4; ratio of PX tonic IC50 values)	IC50 (hNav1.7; [1]) [nM]	IC50 (hNav1.4; [1]) [nM]	Nav1.4/Nav1.7 (hNav1.4; ratio of PX IC50 values)	IC50 (hNav1.5; [1]) [nM]
C#CC[C@H](N)C(=O)N[C@H]1CSSC[C@@H]2NC(=O)[C@@H]3CSSC[C@@H](C(=O)N[C@@H](CCCNC(=N)N)C(=O)N[C@@H](CCCCN)C(=O)N[C@@H](CCC(=O)O)C(=O)N[C@H](C(N)=O)[C@@H](C)CC)NC(=O)[C@H](Cc4c[nH]c5ccccc45)NC(=O)[C@H](CC(C)C)NC(=O)[C@H](CCCCN)NC(=O)[C@H](CSSC[C@H](NC(=O)[C@H]([C@@H](C)O)NC(=O)[C@H](Cc4c[nH]c5ccccc45)NC(=O)[C@H](CCCC)NC(=O)[C@H](Cc4c[nH]c5ccccc45)NC(=O)[C@H](CCCCN)NC(=O)[C@H](CCC(N)=O)NC1=O)C(=O)N[C@@H](CC(=O)O)C(=O)N[C@@H](CO)C(=O)N[C@@H](CCCCN)C(=O)N[C@@H](CCCNC(=N)N)C(=O)N[C@@H](C)C(=O)N3)NC(=O)[C@H](CCCNC(=N)N)NC(=O)[C@H](CC(C)C)NC(=O)CNC(=O)[C@H](CCC(=O)O)NC2=O [compound 329]	0.269	149	4620					
C#CC[C@@H]1NC(=O)[C@H](CC(=O)O)NC(=O)[C@@H]2CSSC[C@@H]3NC(=O)[C@H](CCCNC(=N)N)NC(=O)[C@H](CC(C)C)NC(=O)CNC(=O)[C@H](CCC(=O)O)NC(=O)[C@H](CSSC[C@H](NC(=O)[C@@H](N)Cc4ccc(O)cc4)C(=O)N[C@@H](CCC(N)=O)C(=O)N[C@@H](CCCCN)C(=O)N[C@@H](Cc4c[nH]c5ccccc45)C(=O)N[C@@H](CCCC)C(=O)N[C@@H](Cc4c[nH]c5ccccc45)C(=O)N[C@@H]([C@@H](C)O)C(=O)N2)NC(=O)[C@H](CSSC[C@@H](C(=O)N[C@@H](CCCNC(=N)N)C(=O)N[C@@H](CCCCN)C(=O)N[C@@H](CCC(=O)O)C(=O)N[C@H](C(N)=O)[C@@H](C)CC)NC(=O)[C@H](Cc2c[nH]c4ccccc24)NC(=O)[C@H](CC(C)C)NC(=O)[C@H](CCCCN)NC3=O)NC(=O)[C@H](C)NC(=O)[C@H](CCCNC(=N)N)NC(=O)[C@H](CCCCN)NC1=O [compound 330]	0.763	222	5980					
C#CC[C@@H]1NC(=O)[C@H](CCCNC(=N)N)NC(=O)[C@H](CCCCN)NC(=O)[C@H](CO)NC(=O)[C@H](CC(=O)O)NC(=O)[C@@H]2CSSC[C@@H]3NC(=O)[C@H](CCCNC(=N)N)NC(=O)[C@H](CC(C)C)NC(=O)CNC(=O)[C@H](CCC(=O)O)NC(=O)[C@H](CSSC[C@H](NC(=O)[C@@H](N)Cc4ccc(O)cc4)C(=O)N[C@@H](CCC(N)=O)C(=O)N[C@@H](CCCCN)C(=O)N[C@@H](Cc4c[nH]c5ccccc45)C(=O)N[C@@H](CCCC)C(=O)N[C@@H](Cc4c[nH]c5ccccc45)C(=O)N[C@@H]([C@@H](C)O)C(=O)N2)NC(=O)[C@H](CSSC[C@@H](C(=O)N[C@@H](CCCNC(=N)N)C(=O)N[C@@H](CCCCN)C(=O)N[C@@H](CCC(=O)O)C(=O)N[C@H](C(N)=O)[C@@H](C)CC)NC(=O)[C@H](Cc2c[nH]c4ccccc24)NC(=O)[C@H](CC(C)C)NC(=O)[C@H](CCCCN)NC3=O)NC1=O [compound 331]	0.493	105	3510					
C#CC[C@@H]1NC(=O)[C@@H]2CSSC[C@H](NC(=O)[C@@H](N)Cc3ccc(O)cc3)C(=O)N[C@@H](CCC(N)=O)C(=O)N[C@@H](CCCCN)C(=O)N[C@@H](Cc3c[nH]c4ccccc34)C(=O)N[C@@H](CCCC)C(=O)N[C@@H](Cc3c[nH]c4ccccc34)C(=O)N[C@@H]([C@@H](C)O)C(=O)N[C@H]3CSSC[C@H](NC(=O)[C@H](CCCNC(=N)N)NC(=O)[C@H](CC(C)C)NC(=O)CNC1=O)C(=O)N[C@@H](CCCCN)C(=O)N[C@@H](CC(C)C)C(=O)N[C@@H](Cc1c[nH]c4ccccc14)C(=O)N[C@H](C(=O)N[C@@H](CCCNC(=N)N)C(=O)N[C@@H](CCCCN)C(=O)N[C@@H](CCC(=O)O)C(=O)N[C@H](C(N)=O)[C@@H](C)CC)CSSC[C@H](NC(=O)[C@H](C)NC(=O)[C@H](CCCNC(=N)N)NC(=O)[C@H](CCCCN)NC(=O)[C@H](CO)NC(=O)[C@H](CC(=O)O)NC3=O)C(=O)N2 [compound 332]	3.63	125	3080	34				
C#CC[C@H](N)C(=O)N[C@H]1CSSC[C@@H]2NC(=O)[C@@H]3CSSC[C@@H](C(=O)N[C@@H](CCCNC(=N)N)C(=O)N[C@@H](CCCCN)C(=O)N[C@H](C(=O)N[C@H](C(N)=O)[C@@H](C)CC)[C@@H](C)CC)NC(=O)[C@H](Cc4c[nH]c5ccccc45)NC(=O)[C@H](CC(C)C)NC(=O)[C@H](CCCCN)NC(=O)[C@H](CSSC[C@H](NC(=O)[C@H]([C@@H](C)O)NC(=O)[C@H](Cc4c[nH]c5ccccc45)NC(=O)[C@H](CCCC)NC(=O)[C@H](Cc4c[nH]c5ccccc45)NC(=O)[C@H](CCCCN)NC(=O)[C@H](CCC(N)=O)NC1=O)C(=O)N[C@@H](CC(=O)O)C(=O)N[C@@H](CO)C(=O)N[C@@H](CCCCN)C(=O)N[C@@H](CCCNC(=N)N)C(=O)N[C@@H](C)C(=O)N3)NC(=O)[C@H](CCC(=O)O)NC(=O)[C@H](CC(C)C)NC(=O)CNC(=O)[C@H](CCC(=O)O)NC2=O [compound 343]	2.63	790	2660	300				
C#CC[C@@H]1NC(=O)[C@H](CC(=O)O)NC(=O)[C@@H]2CSSC[C@@H]3NC(=O)[C@H](CCC(=O)O)NC(=O)[C@H](CC(C)C)NC(=O)CNC(=O)[C@H](CCC(=O)O)NC(=O)[C@H](CSSC[C@H](NC(=O)[C@@H](N)Cc4ccc(O)cc4)C(=O)N[C@@H](CCC(N)=O)C(=O)N[C@@H](CCCCN)C(=O)N[C@@H](Cc4c[nH]c5ccccc45)C(=O)N[C@@H](CCCC)C(=O)N[C@@H](Cc4c[nH]c5ccccc45)C(=O)N[C@@H]([C@@H](C)O)C(=O)N2)NC(=O)[C@H](CSSC[C@@H](C(=O)N[C@@H](CCCNC(=N)N)C(=O)N[C@@H](CCCCN)C(=O)N[C@H](C(=O)N[C@H](C(N)=O)[C@@H](C)CC)[C@@H](C)CC)NC(=O)[C@H](Cc2c[nH]c4ccccc24)NC(=O)[C@H](CC(C)C)NC(=O)[C@H](CCCCN)NC3=O)NC(=O)[C@H](C)NC(=O)[C@H](CCCNC(=N)N)NC(=O)[C@H](CCCCN)NC1=O [compound 344]	18.4	4220	3550	230				
C#CC[C@@H]1NC(=O)[C@H](CCCNC(=N)N)NC(=O)[C@H](CCCCN)NC(=O)[C@H](CO)NC(=O)[C@H](CC(=O)O)NC(=O)[C@@H]2CSSC[C@@H]3NC(=O)[C@H](CCC(=O)O)NC(=O)[C@H](CC(C)C)NC(=O)CNC(=O)[C@H](CCC(=O)O)NC(=O)[C@H](CSSC[C@H](NC(=O)[C@@H](N)Cc4ccc(O)cc4)C(=O)N[C@@H](CCC(N)=O)C(=O)N[C@@H](CCCCN)C(=O)N[C@@H](Cc4c[nH]c5ccccc45)C(=O)N[C@@H](CCCC)C(=O)N[C@@H](Cc4c[nH]c5ccccc45)C(=O)N[C@@H]([C@@H](C)O)C(=O)N2)NC(=O)[C@H](CSSC[C@@H](C(=O)N[C@@H](CCCNC(=N)N)C(=O)N[C@@H](CCCCN)C(=O)N[C@H](C(=O)N[C@H](C(N)=O)[C@@H](C)CC)[C@@H](C)CC)NC(=O)[C@H](Cc2c[nH]c4ccccc24)NC(=O)[C@H](CC(C)C)NC(=O)[C@H](CCCCN)NC3=O)NC1=O [compound 345]	7.16	1660	4570					
C#CC[C@@H]1NC(=O)[C@@H]2CSSC[C@H](NC(=O)[C@@H](N)Cc3ccc(O)cc3)C(=O)N[C@@H](CCC(N)=O)C(=O)N[C@@H](CCCCN)C(=O)N[C@@H](Cc3c[nH]c4ccccc34)C(=O)N[C@@H](CCCC)C(=O)N[C@@H](Cc3c[nH]c4ccccc34)C(=O)N[C@@H]([C@@H](C)O)C(=O)N[C@H]3CSSC[C@H](NC(=O)[C@H](CCC(=O)O)NC(=O)[C@H](CC(C)C)NC(=O)CNC1=O)C(=O)N[C@@H](CCCCN)C(=O)N[C@@H](CC(C)C)C(=O)N[C@@H](Cc1c[nH]c4ccccc14)C(=O)N[C@H](C(=O)N[C@@H](CCCNC(=N)N)C(=O)N[C@@H](CCCCN)C(=O)N[C@H](C(=O)N[C@H](C(N)=O)[C@@H](C)CC)[C@@H](C)CC)CSSC[C@H](NC(=O)[C@H](C)NC(=O)[C@H](CCCNC(=N)N)NC(=O)[C@H](CCCCN)NC(=O)[C@H](CO)NC(=O)[C@H](CC(=O)O)NC3=O)C(=O)N2 [compound 346]	9.95	291	1020	29				
CCCC[C@@H]1NC(=O)[C@H](Cc2c[nH]c3ccccc23)NC(=O)[C@H](CCCCN)NC(=O)[C@H](CCC(N)=O)NC(=O)[C@@H](NC(=O)[C@H](Cc2ccc(O)cc2)NC(=O)[C@@H](N)CCCC)CSSC[C@@H]2NC(=O)[C@@H]3CSSC[C@@H](C(=O)N[C@@H](CCCNC(=N)N)C(=O)N[C@@H](CCCCN)C(=O)N[C@H](C(=O)N[C@H](C(N)=O)[C@@H](C)CC)[C@@H](C)CC)NC(=O)[C@H](Cc4c[nH]c5ccccc45)NC(=O)[C@H](CC(C)C)NC(=O)[C@H](CCCCN)NC(=O)[C@H](CSSC[C@H](NC(=O)[C@H]([C@@H](C)O)NC(=O)[C@H](Cc4c[nH]c5ccccc45)NC1=O)C(=O)N[C@@H](CC(=O)O)C(=O)N[C@@H](CO)C(=O)N[C@@H](CCCCN)C(=O)N[C@@H](CCCNC(=N)N)C(=O)N[C@@H](C)C(=O)N3)NC(=O)[C@H](CCCNC(=N)N)NC(=O)[C@H](CC(C)C)NC(=O)CNC(=O)[C@H](CCC(=O)O)NC2=O [compound 370]					0.223	4.6	21	830
